According to ChEMBL document CHEMBL1137593, “Identification and optimisation of a series of substituted 5-pyridin-2-yl-thiophene-2-hydroxamic acids as potent histone deacetylase (HDAC) inhibitors” (Bioorg Med Chem Lett, 2007):
Blank lines part the entries; values can stand above or below the compound they belong to.

Legend:
MDA-MB-231 = test: cells; format: functional, cell-based; conditions: Homo sapiens
Description: Inhibition of MDA-MB-231 cell proliferation (mean of two experiments)

MCF7 = test: Inhibition of MCF7 cell proliferation (mean of two experiments); format: functional, cell-based; conditions: Homo sapiens
Histone deacetylase 1 = Histone deacetylase 1 (Homo sapiens, UniProt Q13547); test: Inhibition of HDAC activity measured by HDAC Fluorescent Activity Assay (mean of two experiments); format: functional
Sequence of Histone deacetylase 1 (Q13547 whole entry): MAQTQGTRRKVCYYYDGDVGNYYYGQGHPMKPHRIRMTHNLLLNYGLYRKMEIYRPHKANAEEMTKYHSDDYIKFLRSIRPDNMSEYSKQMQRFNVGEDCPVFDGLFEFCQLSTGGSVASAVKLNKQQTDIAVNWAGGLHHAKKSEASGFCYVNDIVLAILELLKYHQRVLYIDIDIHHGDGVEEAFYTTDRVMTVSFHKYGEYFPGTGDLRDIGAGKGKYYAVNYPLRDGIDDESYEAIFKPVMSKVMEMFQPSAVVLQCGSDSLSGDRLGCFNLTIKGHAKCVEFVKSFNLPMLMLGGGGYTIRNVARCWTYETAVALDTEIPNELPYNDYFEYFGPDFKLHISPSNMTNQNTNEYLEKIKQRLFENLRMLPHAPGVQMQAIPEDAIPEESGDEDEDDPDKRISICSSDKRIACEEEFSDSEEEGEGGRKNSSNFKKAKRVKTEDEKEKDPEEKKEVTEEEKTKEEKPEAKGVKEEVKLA

HCT-116 = test: cells; format: functional, cell-based; conditions: Homo sapiens;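 note: inhibition of HCT116 cell growth as proliferation read-out, each value averaged over two experiments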
Description: Inhibition of HCT116 cell proliferation (mean of two experiments)

[1] = (§1) AUC after oral dosing at 5 mg kg-1; format: ADME, organism-based, Plasma; set-up: dose 5 mg kg-1, route oral; conditions: mouse, plasma
CYP1A2 = biological target: T1, CYP1A2 (Homo sapiens, UniProt P05177); test: Percent inhibition of CYP450 1A2 at 1 uM concentration; format: ADME
T1 sequence (P05177 whole entry): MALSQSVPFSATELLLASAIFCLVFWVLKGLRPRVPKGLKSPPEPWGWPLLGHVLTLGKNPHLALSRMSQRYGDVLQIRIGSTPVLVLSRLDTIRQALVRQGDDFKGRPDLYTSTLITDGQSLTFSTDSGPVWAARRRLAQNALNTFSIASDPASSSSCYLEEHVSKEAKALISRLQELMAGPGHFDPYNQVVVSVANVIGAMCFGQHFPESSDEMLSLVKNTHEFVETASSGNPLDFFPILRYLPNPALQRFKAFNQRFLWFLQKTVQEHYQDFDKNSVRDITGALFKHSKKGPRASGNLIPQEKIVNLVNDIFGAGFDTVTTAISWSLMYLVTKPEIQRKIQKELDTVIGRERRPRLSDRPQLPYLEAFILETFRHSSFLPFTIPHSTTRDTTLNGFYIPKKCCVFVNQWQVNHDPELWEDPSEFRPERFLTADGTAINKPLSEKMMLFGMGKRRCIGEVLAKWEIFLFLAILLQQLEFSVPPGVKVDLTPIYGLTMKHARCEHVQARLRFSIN

[2] = Microsome stability: percent compound remaining; format: ADME; conditions: microsomes
[3] = Permeability (Papp) run from pH 6.5-7.4; format: ADME, cell-based; conditions: human, Caco-2, pH 6.5
[4] = AUC after i.p. dosing at 5 mg kg-1; format: ADME, organism-based; set-up: dose 5 mg kg-1, route intraperitoneal; conditions: mouse, plasma, ip
CYP2C19 = CYP2C19 (Homo sapiens, UniProt P33261); test: Percent inhibition of CYP450 2C19 at 1 uM concentration; format: ADME
Sequence of CYP2C19 (P33261 whole entry): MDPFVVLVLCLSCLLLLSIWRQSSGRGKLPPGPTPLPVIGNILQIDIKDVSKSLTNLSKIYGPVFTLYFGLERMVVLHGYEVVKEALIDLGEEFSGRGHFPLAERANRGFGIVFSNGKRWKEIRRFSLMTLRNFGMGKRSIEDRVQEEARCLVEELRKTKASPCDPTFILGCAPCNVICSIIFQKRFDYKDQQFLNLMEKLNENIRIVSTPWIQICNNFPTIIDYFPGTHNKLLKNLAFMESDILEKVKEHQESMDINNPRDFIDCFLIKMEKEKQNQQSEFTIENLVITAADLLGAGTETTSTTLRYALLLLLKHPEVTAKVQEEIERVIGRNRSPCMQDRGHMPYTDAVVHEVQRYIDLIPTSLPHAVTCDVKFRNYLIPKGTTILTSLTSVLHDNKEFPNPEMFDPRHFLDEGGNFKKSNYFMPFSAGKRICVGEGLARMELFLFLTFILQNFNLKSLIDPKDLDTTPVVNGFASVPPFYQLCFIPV

[5] = Bioavailability after i.p. dosing at 5 mg kg-1; format: ADME, organism-based; conditions: mouse, in vivo, ip
[6] = Half life after i.v. dosing at 1 mg kg-1; format: ADME, organism-based; set-up: dose 1 mg kg-1, route intravenous; conditions: in vivo, iv
CYP2D6 = CYP2D6 (Homo sapiens, UniProt P10635); test: Percent inhibition of CYP450 2D6 at 1uM concentration; format: ADME
Sequence of CYP2D6 (P10635 whole entry): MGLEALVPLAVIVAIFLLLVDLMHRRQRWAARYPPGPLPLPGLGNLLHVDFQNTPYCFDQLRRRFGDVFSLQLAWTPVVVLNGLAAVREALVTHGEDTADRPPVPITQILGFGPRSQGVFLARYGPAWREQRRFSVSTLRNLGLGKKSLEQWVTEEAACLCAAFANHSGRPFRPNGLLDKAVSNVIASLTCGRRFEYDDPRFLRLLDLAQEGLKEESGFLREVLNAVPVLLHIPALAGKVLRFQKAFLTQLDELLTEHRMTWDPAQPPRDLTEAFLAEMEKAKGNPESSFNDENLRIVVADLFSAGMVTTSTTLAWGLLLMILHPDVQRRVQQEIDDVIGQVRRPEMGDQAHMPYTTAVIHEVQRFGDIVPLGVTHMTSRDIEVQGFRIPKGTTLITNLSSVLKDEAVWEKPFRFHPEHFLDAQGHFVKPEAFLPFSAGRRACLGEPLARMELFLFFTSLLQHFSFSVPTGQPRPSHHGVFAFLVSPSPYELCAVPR

[7] = Clearance after i.v. dosing at 1 mg kg-1; format: ADME, organism-based; set-up: dose 1 mg kg-1, route intravenous; conditions: in vivo, iv
CYP2C9 = CYP2C9 (Homo sapiens, UniProt P11712); test: Percent inhibition of CYP450 2C9 at 1 uM concentration; format: ADME
Sequence of CYP2C9 (P11712 whole entry): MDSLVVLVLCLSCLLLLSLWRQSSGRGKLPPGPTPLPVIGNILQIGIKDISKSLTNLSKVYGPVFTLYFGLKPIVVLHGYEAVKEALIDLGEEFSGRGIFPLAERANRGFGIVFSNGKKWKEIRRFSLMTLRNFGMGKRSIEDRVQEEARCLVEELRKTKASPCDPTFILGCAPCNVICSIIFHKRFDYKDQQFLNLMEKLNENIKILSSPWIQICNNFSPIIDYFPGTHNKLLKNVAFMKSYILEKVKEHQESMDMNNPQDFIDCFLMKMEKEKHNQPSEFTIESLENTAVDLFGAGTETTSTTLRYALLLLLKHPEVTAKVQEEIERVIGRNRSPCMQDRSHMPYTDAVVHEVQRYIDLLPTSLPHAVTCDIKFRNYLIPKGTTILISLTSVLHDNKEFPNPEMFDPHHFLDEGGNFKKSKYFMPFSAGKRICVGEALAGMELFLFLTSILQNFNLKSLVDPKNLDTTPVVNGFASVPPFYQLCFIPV

[8] = as §1; format: ADME, organism-based; set-up: dose 5 mg kg-1, route oral; conditions: rat, plasma
[9] = Steady state volume of distribution (Vdss) after i.v. dosing at 1 mg kg-1; format: ADME, organism-based; set-up: dose 1 mg kg-1, route intravenous; conditions: in vivo, iv, read-out: Vdss
[10] = Hepatocyte stability; format: ADME, cell-based; conditions: hepatocytes
[11] = Oral bioavailability after oral dosing at 5 mg kg-1; format: ADME, organism-based; conditions: in vivo

SMILES: O=C(NO)c1ccc(-c2ccc(CN3CCc4ccccc4C3)cn2)s1
- IC50 (MDA-MB-231): 0.86 µM
- IC50 (MCF7): 0.22 µM
- IC50 (Histone deacetylase 1): 0.03 µM

SMILES: O=C(NO)c1ccc(-c2ccncc2)s1
- IC50 (Histone deacetylase 1): 1.26 µM

SMILES: O=C(NO)c1ccc(-c2cccnc2)s1
- IC50 (Histone deacetylase 1): 1.13 µM

SMILES: O=C(NO)c1ccc(-c2cccc(CNCc3ccccc3)n2)s1
- IC50 (MCF7): 1.9 µM
- IC50 (Histone deacetylase 1): 0.359 µM

SMILES: O=C(CCCCCCC(=O)Nc1ccccc1)NO [VORINOSTAT]
- AUC [1]: 200 ng·h/mL
- inhibition at 1 µM (CYP1A2): 14%
- %R ([2]; human): 97%
- %R ([2]; mouse): 114%
- Papp [3]: 8 ×10⁻⁶ cm/s
- AUC [4]: 600 ng·h/mL
- inhibition at 1 µM (CYP2C19): 14%
- bioavailability [5]: 61%
- half-life ([6]; mouse): 48 min
- half-life ([6]; rat): 42 min
- inhibition at 1 µM (CYP2D6): 8%
- clearance ([7]; mouse): 78 mL/min/kg
- clearance ([7]; rat): 67 mL/min/kg
- inhibition at 1 µM (CYP2C9): 28%
- AUC [8]: 400 ng·h/mL
- Vd ([9]; mouse): 2.1 L/kg
- Vd ([9]; rat): 1.6 L/kg
- Hepatocyte stability ([10]; human): 3 uL/min/10e6 cells
- Hepatocyte stability ([10]; rat): 12 uL/min/10e6 cells
- bioavailability ([11]; mouse): 14%
- bioavailability ([11]; rat): 16%

SMILES: O=C(NO)c1ccc(-c2ccc(CCNCCc3ccccc3)cn2)s1
- IC50 (MCF7): 0.14 µM
- IC50 (Histone deacetylase 1): 0.031 µM

SMILES: O=C(NO)c1ccc(-c2ccc(NCCc3ccccc3)cn2)s1
- IC50 (MDA-MB-231): 3.51 µM
- IC50 (MCF7): 1.47 µM
- IC50 (Histone deacetylase 1): 0.08 µM

SMILES: O=C(NO)c1ccc(-c2ncccn2)s1
- IC50 (MCF7): 2.12 µM
- IC50 (Histone deacetylase 1): 0.186 µM

Next, values leading:

- IC50 (HCT-116): 0.08 µM
- IC50 (MCF7): 0.06 µM
- IC50 (Histone deacetylase 1): 0.017 µM
SMILES: COc1ccccc1CCNCc1ccc(-c2ccc(C(=O)NO)s2)nc1

- IC50 (HCT-116): 0.09 µM
- IC50 (MCF7): 0.06 µM
- IC50 (Histone deacetylase 1): 0.009 µM
SMILES: Cc1cccc(CCNCc2ccc(-c3ccc(C(=O)NO)s3)nc2)c1

- IC50 (HCT-116): 0.06 µM
- IC50 (MCF7): 0.06 µM
- IC50 (Histone deacetylase 1): 0.014 µM
SMILES: Cc1ccc(CCNCc2ccc(-c3ccc(C(=O)NO)s3)nc2)cc1

- IC50 (MDA-MB-231): 0.3 µM
- IC50 (MCF7): 0.13 µM
- IC50 (Histone deacetylase 1): 0.009 µM
SMILES: O=C(NO)c1ccc(-c2ccc(CNCc3ccc(Cl)cc3)cn2)s1

- IC50 (HCT-116): 0.11 µM
- IC50 (MCF7): 0.07 µM
- IC50 (Histone deacetylase 1): 0.009 µM
SMILES: O=C(NO)c1ccc(-c2ccc(CCNCc3ccc4c(c3)OCO4)cn2)s1

- IC50 (HCT-116): 0.07 µM
- IC50 (MCF7): 0.05 µM
- IC50 (Histone deacetylase 1): 0.008 µM
SMILES: O=C(NO)c1ccc(-c2ccc(CNCc3ccc4c(c3)OCO4)cn2)s1

- IC50 (MDA-MB-231): 0.63 µM
- IC50 (MCF7): 0.37 µM
- IC50 (Histone deacetylase 1): 0.016 µM
SMILES: O=C(NO)c1ccc(-c2ccc(CNc3ccccc3)cn2)s1

- IC50 (HCT-116): 0.18 µM
- IC50 (MCF7): 0.12 µM
- IC50 (Histone deacetylase 1): 0.008 µM
SMILES: O=C(NO)c1ccc(-c2ccc(CNCCc3c[nH]c4ccccc34)cn2)s1

- IC50 (HCT-116): 0.18 µM
- IC50 (MCF7): 0.15 µM
- IC50 (Histone deacetylase 1): 0.007 µM
SMILES: O=C(NO)c1ccc(-c2ccc(CNCc3ccc(-c4ccccc4)cc3)cn2)s1

- IC50 (MDA-MB-231): 0.3 µM
- IC50 (MCF7): 0.11 µM
- IC50 (Histone deacetylase 1): 0.011 µM
SMILES: O=C(NO)c1ccc(-c2ccc(CNCCOc3ccccc3)cn2)s1
